Read-outs that look alike come from different tables or passages of the source. Marks after values point to notes of the source that are not given here.
How the values were obtained:
[1] = system: R. solanacearum; assay type: in vivo, Ralstonia solanacearum; details: beef tomato, soil drench at 3 and 10 dpi, 5 mg/L IBA and/or 15 mg/L Kinetin; for Severity score at days post infection (dpi): 9 / Severity score at days post infection (dpi): 11 / Severity score at days post infection (dpi): 13: 0-5 disease scale, mean n=12; for Severity score at days post infection (dpi): 9: 9 dpi; for Severity score at days post infection (dpi): 11: 11 dpi; for Severity score at days post infection (dpi): 13 / Survival Rate (13 dpi): 13 dpi; for Survival Rate (13 dpi): n=12
[2] = system: R. solanacearum; assay type: in vivo, Ralstonia solanacearum; details: beef tomato, soil drench before inoculation and at 3 and 10 dpi, 5 mg/L IBA and/or 20 mg/L Kinetin; for Severity score at days post infection (dpi): 9 / Severity score at days post infection (dpi): 11 / Severity score at days post infection (dpi): 13: 0-5 disease scale, mean n=12; for Severity score at days post infection (dpi): 9: 9 dpi; for Severity score at days post infection (dpi): 11: 11 dpi; for Severity score at days post infection (dpi): 13 / Survival Rate (13 dpi): 13 dpi; for Survival Rate (13 dpi): n=12
[3] = system: Ralstonia solanacearum; assay type: in vivo; details: beef tomato, foliar spray at 3 and 10 dpi, 5 mg/L IBA and/or 15 mg/L Kinetin in 0.1% (v/v) Tween 80; for Severity score at days post infection (dpi): 9 / Severity score at days post infection (dpi): 11 / Severity score at days post infection (dpi): 13: 0-5 disease scale, mean n=12; for Severity score at days post infection (dpi): 9: 9 dpi; for Severity score at days post infection (dpi): 11: 11 dpi; for Severity score at days post infection (dpi): 13 / Survival Rate (13 dpi): 13 dpi; for Survival Rate (13 dpi): n=12

SMILES | Severity score at days post infection (dpi): 9 [1] | Severity score at days post infection (dpi): 11 [1] | Severity score at days post infection (dpi): 13 [1] | Survival Rate (13 dpi) [1] | Severity score at days post infection (dpi): 9 [2] | Severity score at days post infection (dpi): 11 [2] | Severity score at days post infection (dpi): 13 [2] | Survival Rate (13 dpi) [2] | Severity score at days post infection (dpi): 9 [3] | Severity score at days post infection (dpi): 11 [3] | Severity score at days post infection (dpi): 13 [3] | Survival Rate (13 dpi) [3]
O=C(O)CCCc1c[nH]c2ccccc12 [IBA, indole-3-butyric acid] | 0.25* | 1.00* | 2.50 | 67% | 0.92 | 1.58 | 2.17* | 75% | 0.25* | 2.50 | 3.25 | 58%
c1coc(CNc2ncnc3nc[nH]c23)c1 [Kinetin, N6-furfuryladenine] | 0.25* | 1.08* | 2.58 | 75% | 0.83 | 1.42 | 2.08* | 75% | 0.42 | 2.08 | 3.17 | 58%

Source: patent publication US20210298307A1 (priority 2020, published 2021)
